Reference: paper PMC5201116, “Bioactive Flavonoids and Catechols as Hif1 and Nrf2 Protein Stabilizers - Implications for Parkinson’s Disease” (Aging and Disease, 2016)

Legend:
[1] = Iron binding constant, calcein displacement assay; type: physicochemical; details: for Iron complex Diss. Const: calcein displacement
Source text: Calcein displacement assay in the presence of varied concentrations of flavonoids and catechols has been used. Calcein release from its complex with iron was monitored by fluorescence as described in [26].

[2] = Non-enzymatic ferricyanide reduction rate constant; type: physicochemical; details: 1 mM ferricyanide, pH 7.0
Protocol: The rate of ferricyanide reduction by individual flavonoids was measured spectrophotometrically at 420 nm with the fixed concentration of ferricyanide (1 mM) and varied concentrations of a flavonoid in Potassium-phosphate buffer, pH 7.0. The rate constant for direct ferricyanide reduction was calculated from the slope of the dependence reaction rate vs flavonoid concentration and used as a measure of flavonoid non-specific reducing power.

[3] = system: HRE-luciferase reporter (HT22 hippocampal cell line); assay: HRE-luc reporter assay; type: cell-based; details: at 10 µM; for fold induction at 10 µM: Mus musculus, HT-22, 3 h, read-out: HRE-luc fold activation
Source text: A promoter-reporter construct that contained 68 bp of a known hypoxia and HIF-1 regulated gene, enolase, containing a wild type hypoxia response element (HRE, 5’-RCTGT-3’), is a widely used approach for screening for HIF activators of different mechanism of action. A cell-based assay with HRE-luciferase reporter system is based on transfected immortalized hippocampal cell line (HT22) and allows screening for a broad spectrum of compounds that include: activators of HIF transcription; activators of HIF binding to HRE; and effectors of HIF protein stability (PHD inhibitors, pVHL & proteasome inhibitors). The assay was performed the same way as for HIF ODD-luc reporter except the cells were plated at the density of 10,000 cell per well and incubated overnight.

[4] = system: HIF1 ODD-luc reporter (SH-SY5Y cell line); assay: HIF1 ODD-luc reporter assay; type: cell-based; details: for fold induction at 10 µM: 3 h, read-out: ODD-luc fold activation; for fold induction at 10 µM / ODD-luc fold activation: 3 h incubation, at 10 µM
Protocol: (§1) SH-SY5Y cell lines stably expressing HIF1 ODD-luc or Neh2-luc reporters were grown in the DMEM/F12 supplemented with GlutaMAX (Thermo Fisher Scientific) containing 10% FBS, 100 U/ml penicillin, and 100 μg/ml streptomycin and plated into 384-well white flat-bottom plates at 7,000 cell/well in 30 µl serum and incubated overnight at 37°C, 5% CO2. The next day compounds were added to a final concentration of 10 µM and the plates were incubated for 3 hours at 37°C. Reporter activation after 3 h incubation with the studied compound was compared to that for ciclopirox (HIF1 ODD-luc reporter) or TBHQ (Neh2-luc reporter), taken as 100%. Luciferase reporter activity was measured with a SteadyGlo reagent from Promega providing stable reading for 1 h.
(§2) Cells were plated at the density of 25,000 cell per well using a WellMate multichannel dispenser from Matrix (Thermo Fisher Scientific, Waltham, MA) and grown overnight on DMEM/F12+GlutaMAX (100 µl per well). Then an inhibitor was added, and the plates were incubated for a fixed time interval; the medium was removed, cells lysed, and luciferase activity was measured on a SpectraMax M5e platereader (Molecular Devices, Sunnyvale, CA) with BrightGlo™ reagent (Promega, Madison, WI). The reporter activation was normalized to the background luminescence. The effect of 0.5 mM N-acetylcysteine (NAC) was studied by simultaneous addition of 5 µL of 10 mM stock of NAC in water and 2 µL of 50x stock solutions of a flavonoid in DMSO.

[5] = system: Neh2-luc reporter (SH-SY5Y cell line); assay: Neh2-luc reporter assay; type: cell-based; details: for Neh2-luc fold activation / fold induction at 10 µM: at 10 µM, 3 h incubation; for EC50: Neh2-luc; for fold induction at 10 µM: read-out: Neh2-luc fold activation
Protocol: as §1, §2

[6] = set-up: method as in PMID 17112238; details: cited from earlier work
[7] = system: primary neuronal cultures treated with 5 mM HCA; assay: Glutathione depletion (HCA) model, MTT viability; type: cell-based, rat; details: for concentration at which neuroprotection begins: glutathione depletion model, Fig. 5; for EC50: Rattus norvegicus, results not shown, read-out: EC50 of protection in glutathione depletion model
Protocol: Primary neuronal cultures were prepared from the forebrains of Sprague-Dawley rat embryos (E17) and plated on 96 well plates at a 10^6 cells/ml density. After 24 hours, cells were rinsed with warm PBS and then placed in minimum Essential Medium (MEM; Life Technologies, Grand Island, NY) containing 5 mM HCA in the presence of a compound of interest at varied concentrations. Cells were incubated for 24 h or longer to see 90% cell death in HCA treated controls. Viability was assessed by the MTT (4,5-dimethylthiazol-2-yl)-2,5-diphenyltetrazolium bromide) assay.

[8] = target: T1, Rabbit Reticulocyte 15-LOX-1 (Oryctolagus cuniculus, UniProt P12530); assay: Rabbit LOX 12/15 (rabbit reticulocyte 15-LOX-1) activity; type: biochemical; details: compounds at 25 µM, Fig. 4A
T1 sequence (P12530 1-663): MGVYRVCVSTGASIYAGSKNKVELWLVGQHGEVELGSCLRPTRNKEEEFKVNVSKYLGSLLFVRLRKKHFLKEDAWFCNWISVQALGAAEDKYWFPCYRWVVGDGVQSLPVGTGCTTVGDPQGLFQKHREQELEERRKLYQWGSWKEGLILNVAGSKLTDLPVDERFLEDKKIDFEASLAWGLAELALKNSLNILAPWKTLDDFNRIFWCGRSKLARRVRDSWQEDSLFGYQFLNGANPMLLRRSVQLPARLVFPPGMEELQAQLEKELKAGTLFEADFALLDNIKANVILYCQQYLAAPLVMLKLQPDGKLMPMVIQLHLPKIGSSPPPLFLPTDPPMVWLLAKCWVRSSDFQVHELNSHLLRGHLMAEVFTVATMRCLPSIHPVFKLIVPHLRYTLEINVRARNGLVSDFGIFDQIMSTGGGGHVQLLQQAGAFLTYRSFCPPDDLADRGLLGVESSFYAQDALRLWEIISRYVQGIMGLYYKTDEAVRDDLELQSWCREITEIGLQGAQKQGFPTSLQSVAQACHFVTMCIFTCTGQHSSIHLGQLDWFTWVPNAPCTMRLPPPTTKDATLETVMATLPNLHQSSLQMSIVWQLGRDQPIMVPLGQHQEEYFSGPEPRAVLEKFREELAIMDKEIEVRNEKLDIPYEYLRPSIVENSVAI
Protocol: The activity of the purified enzyme was measured in the end-point in vitro assay of arachidonic acid oxidation following the formation of fluorescent diphenyl-1-pyrenylphosphine oxide. DMSO was used as a control.

HIF PHD2 = details: competitive with α-KG; read-out: PHD2 Ki; cited from earlier work
[9] = system: VEGF mRNA in immature primary cortical neurons; assay: VEGF mRNA induction, real-time RT-PCR; type: cell-based; details: overnight pretreatment, Fig. 4B
Protocol: For VEGF gene expression studies, total RNA was isolated from immature primary cortical neurons, pretreated overnight with the indicated concentration of a bioactive compound, using the NucleoSpin RNA II kit (Macherey-Nagel, Bethlehem, PA) according to manufacturer’s protocol. Real-time PCR was performed in triplicate as a duplex reaction using a VEGF (Mm01281449_m1) gene expression assay with a 6-carboxyfluorescein-labeled probe, and a β actin gene expression assay with a VIC-labeled probe (Applied Biosystems, Foster City, CA), so that gene amplification could be normalized to β actin. These experiments were performed using a 7500 Real-time PCR System (Applied Biosystems) using standard PCR protocol and amplification conditions.

[10] = simultaneous addition of 0.5 mM NAC, results not shown

Compound	Iron complex Diss. Const [1]	FC red Rate Const [2]	fold induction at 10 µM [3]	fold induction at 10 µM ([4]; Homo sapiens, SH-SY5Y)	Neh2-luc fold activation [5]	ODD-luc fold activation [4]	EHOMO [6] [eV]	EC50 ([5]; Homo sapiens, SH-SY5Y) [µM]	other results
O=c1c(O)c(-c2ccccc2)oc2ccccc12 [compound 1, 3-Hydroxyflavone]	2.0 ± 0.2 µM	inactive	1.5 ± 0.2	1.5 ± 0.2	inactive				Iron complex Diss. Const ([1]; listed as 3-Hydroxyflavone): ca. 2 µM; Neh2-luc fold activation ([5]; listed as 3-hydroxyflavone): completely inactive
O=c1c(O)c(-c2ccccc2)oc2cc(O)ccc12 [compound 2, 3,7-Dihydroxy-]	2.5 ± 0.3 µM	inactive							
O=c1c(O)c(-c2ccc(O)cc2)oc2ccccc12 [compound 3, 3,4'-Dihydroxy-]	2.5 ± 0.2 µM	Inactive				Inactive			HRE-luc fold activation [3]: Inactive
O=c1c(O)c(-c2ccccc2)oc2cccc(O)c12 [compound 7, 3,5-Dihydroxy-]	2.5 ± 0.3 µM	inactive	2 ± 0.2	1.3 ± 0.2	Inactive				
O=c1c(O)c(-c2ccccc2)oc2cc(O)cc(O)c12 [compound 8, Galangin]	3.5 ± 0.4 µM	48000 ± 6000 M⁻¹ s⁻¹	1.3 ± 0.2		Inactive	Inactive	-8.90		
O=c1c(O)c(-c2ccc(O)cc2)oc2cc(O)cc(O)c12 [compound 9, Kaempferol]	2.5 ± 0.3 µM	369000 ± 42000 M⁻¹ s⁻¹	1.5 ± 0.2			Inactive	-8.74	5	fold induction at 10 µM ([5]; Homo sapiens, SH-SY5Y): 15 ± 2; drop in Neh2-luc reporter activation with NAC [5, 10]: 2 fold
O=c1c(O)c(-c2ccc(O)c(O)c2)oc2cc(O)ccc12 [compound 10, Fisetin]	2.7 ± 0.3 µM	301000 ± 34000 M⁻¹ s⁻¹	2 ± 0.2	1.6 ± 0.2			-8.69	2	concentration at which neuroprotection begins [7]: 2.5 µM; LOX inhibition [8]: equipotent as LOX inhibitors; fold induction at 10 µM ([5]; Homo sapiens, SH-SY5Y): 23 ± 3; effect of NAC on Neh2-luc reporter activation [5, 10]: no effect
O=c1cc(-c2ccccc2)oc2cc(O)cc(O)c12 [compound 15, Chrysin]	Inactive		1.2 ± 0.15		Inactive	Inactive	-9.25		
O=c1cc(-c2ccc(O)cc2)oc2cc(O)cc(O)c12 [compound 16, Apigenin]	Inactive		1.3 ± 0.15		Inactive	Inactive	-9.15		
O=c1cc(-c2ccccc2)oc2cc(O)c(O)c(O)c12 [compound 17, Baicalein]	2.5 ± 0.3 µM	25500 ± 3000 M⁻¹ s⁻¹	5 ± 0.6		Inactive	Inactive	-8.99		Ki (HIF PHD2): 7 µM
O=c1cc(-c2ccc(O)c(O)c2)oc2ccccc12 [compound 19, 3’,4’-dihydroxyflavone]	2.5 ± 0.3 µM		2 ± 0.25	2.5 ± 0.3				2	Induction of VEGF mRNA [9]: mild inducers; fold induction at 10 µM ([5]; Homo sapiens, SH-SY5Y): 15 ± 2
O=c1cc(-c2ccccc2)oc2c(O)c(O)ccc12 [compound 20, 7,8-Dihydroxyflavone]	0.7 ± 0.1 µM		3.6 ± 0.4	1.5 ± 0.2	Inactive		-9.23		iron dissociation constant [1]: ca. 700 nM
O=c1c(-c2ccc(O)c(O)c2)coc2cc(O)ccc12 [compound 27, 3’-Hydroxy-daidzein]	3.5 ± 0.4 µM				15±2 fold	2.5±0.3 fold			neuroprotection in glutathione depletion model [7]: protective; concentration at which neuroprotection begins [7]: 2.5 µM; HRE-luc fold activation [3]: 2.5±0.3 fold; EC50 [5]: 5 µM; Neh2-luc fold activation ([5]; listed as 3’-hydroxydaidzein): active
N[C@@H](Cc1ccc(O)c(O)c1)C(=O)O [compound 29, 3,4-Dihydroxy-L-phenylalanine, reference compound]	2.5 ± 0.3 µM		1.7 ± 0.2	2 ± 0.25	Inactive			20	EC50 [7]: 6 µM; EC50 ([4]; Homo sapiens, SH-SY5Y): 15 µM
C[C@@](Cc1ccc(O)c(O)c1)(NN)C(=O)O [compound 31, N-Aminomethyldopa, reference compound]	2.5 ± 0.3 µM				Inactive	Inactive		20	EC50 [7]: > 20 µM; HRE-luc fold activation [3]: Inactive
